One data set deals with T1, human Sulf-1d417-726 (Homo sapiens, UniProt Q8IWU6, DEL417-726).
T1 construct: made in house
The experiment in a line: Determination of dissociation constant (KD) using surface plasmon resonance. The data set is classed as binding. Conditions: compound immobilized on CM5 sensor chip, 1:1 Langmuir model. On the procedure: Determination of dissociation constant (KD) using surface plasmon resonance. Compound 46 was immobilized on the surface of a Biacore sensor chip (GE Healthcare) according to the manufacturer's guidelines using Biacore T200 system. The kinetic analysis study was performed at different concentrations of hSulf1d417-726 protein upon serial dilution to 250, 125, 63, 31 and 15 nM in running buffer [20 mM NaOAc (pH 5.0), 150 mM NaCl, and 0.05% Tween 20] and injected on to the chip surface with a flow rate of 25 μL/min at 25° C. In each run, the chip sensor surface was regenerated by injecting 4 M NaCl. The titration curves fit well to a 1:1 Langmuir binding model for calculations of equilibrium constants.
With highest inhibitory activity, the binding affinity of the inhibitor 46 with human Sulf-1 was further measured by surface plasmon resonance (SPR). The hydrophilic domain-deleted mutant of Sulf-1, namely human Sulf-1d417-726, lacking two furin-type proteinase cleavage sites responsible for forming the disulfide-bonded heterodimers of 75- and 50-kDa subunits with retained enzyme activity was constructed according to the literature report. Compound 46 was immobilized on the CM5 sensor chip, and aliquots of human Sulf-1d417-726 at gradient concentrations were applied onto the chip.
For orientation: Surface plasmon resonance follows binding to a sensor surface in real time, without labels.

For data set [1], the target named is T2, Sulf-1 (Homo sapiens, UniProt Q8IWU6). The experiment in a line: Sulf-1 inhibition assay (4-MU released from 4-MUS).
The target of data set [2] is T2, Sulf-1. The data set can be described thus: Competition assay with 4-MUS substrate (fluorogenic). The data set is classed as biochemical. Further details: made in house. Conditions: for EC50: competition with 4-MUS for Sulf-1. As to the method:
Competition assay with 4-MUS substrate. […] A control mixture without the competing substrate was defined as 100% fluorescent intensity, and the sample with substrate was determined as percentage of fluorescent intensity: (Fluorescent intensity of substrate sample)/(Fluorescent intensity of control sample).
HS oligosaccharides of Example 1.2 were used as competing substrates in the presence of 4-MUS for the identification of Sulf-1 substrate. Compounds 18-20 as well as the commercially available heparin 3000 were independently assessed for their competing effect on 4-MUS cleavage by Sulf-1 to yield the fluorescent 4-methylumbelliferone (4-MU) (FIG. 1, (A)).

Data set [3] has as its system NCCCCCO[C@@H]1OC(C(=O)O)C(O[C@H]2OC(COS(=O)(=O)O)[C@@H](O[C@@H]3OC(C(=O)O)C(O)[C@@H](O)C3OS(=O)(=O)O)[C@H](O)C2NS(=O)(=O)O)[C@@H](O)C1OS(=O)(=O)O. The experiment in a line: purified protein, by the assay type. The note with it: other: released sulfate at different substrate concentrations; pH 7.4; 37.0 °C.
Data set [4] deals with T2, Sulf-1. The data set can be described thus: HPLC assay of sulfate ion release from the substrate by Sulf-1. The note with it: substrate 480 μM, treated with human Sulf-1, HPLC.

Entries after “also recorded” stand apart in the source; their conditions may differ.

As usually defined, the Kd is the equilibrium constant for the complex coming apart. Lower therefore signals tighter binding. By IC50 is commonly meant the concentration that inhibits the measured activity by half. The Ki is the equilibrium dissociation constant of an inhibitor or competing ligand from its target. For orientation: EC50 means the midpoint of the concentration-response curve. Read a high EC50 as lower potency in that assay. As a reminder, the Km is the substrate concentration at which the rate is half of its maximum.

For the compound `NCCCCCO[C@@H]1O[C@@H](C(=O)O)[C@@H](O[C@H]2O[C@H](COS(N)(=O)=O)[C@@H](O[C@@H]3O[C@@H](C(=O)O)[C@@H](O)[C@H](O)[C@H]3OS(=O)(=O)O)[C@H](O)[C@H]2NS(=O)(=O)O)[C@H](O)[C@H]1OS(=O)(=O)O` [Compound 46], binding on human Sulf-1d417-726 was put at a Kd of 0.012 µM. Besides, at Sulf-1 [1], the IC50 amounted to 0.53 µM and the Ki was found to be 0.36 µM. On to `NCCCCCO[C@@H]1OC(C(=O)O)C(O[C@H]2OC(COS(=O)(=O)O)[C@@H](O[C@@H]3OC(C(=O)O)C(O)[C@@H](O)C3OS(=O)(=O)O)[C@H](O)C2NS(=O)(=O)O)[C@@H](O)C1OS(=O)(=O)O` (stereo partly drawn) [Compound 36], for which, on Sulf-1 [2], the EC50 came out at 3.8 µM.

As to human Sulf-1 (Homo sapiens), the Km in data set [3] was 25.8 µM. In the case of `NCCCCCO[C@@H]1OC(C(=O)O)C(O[C@H]2OC(COS(N)(=O)=O)[C@@H](O)C(O)C2NS(=O)(=O)O)[C@@H](O)C1OS(=O)(=O)O` (stereo partly drawn) [Compound 45], on Sulf-1 [1] (read-out: Sulf-1 activity inhibited), the inhibition at 700 µM came to 20%. In the case of `NCCCCCO[C@@H]1O[C@@H](C(=O)O)[C@@H](O[C@H]2O[C@H](COS(N)(=O)=O)[C@@H](O[C@@H]3O[C@@H](C(=O)O)[C@@H](O[C@H]4O[C@H](COS(N)(=O)=O)[C@@H](O)[C@H](O)[C@H]4NS(=O)(=O)O)[C@H](O)[C@H]3OS(=O)(=O)O)[C@H](O)[C@H]2NS(=O)(=O)O)[C@H](O)[C@H]1OS(=O)(=O)O` [Compound 47], the IC50 on Sulf-1 [1] is 29.6 µM.

As to `NCCCCCO[C@@H]1OC(C(=O)O)C(O[C@@H]2OC(COS(=O)(=O)O)[C@@H](O)C(O)C2NS(=O)(=O)O)[C@@H](O)C1OS(=O)(=O)O` (stereo partly drawn) [Compound 18], the “fluorescence intensity (4-MUS hydrolysis, % of control)” value on Sulf-1 [2] (competitor 320 μM, 4-MUS 4.35 mM, 4-MUS with Sulf-1 in pure water = 100%) is listed as 94.5%. Moreover, the “sulfate concentration upon hydrolysis by Sulf-1” value on Sulf-1 [4] stood at 5.9 µM.

At Sulf-1 [2], `NCCCCCO[C@@H]1O[C@@H](C(=O)O)[C@@H](O[C@H]2O[C@H](COS(=O)(=O)O)[C@@H](O[C@@H]3O[C@@H](C(=O)O)[C@@H](O[C@H]4O[C@H](COS(=O)(=O)O)[C@@H](O)[C@H](O)[C@H]4NS(=O)(=O)O)[C@H](O)[C@H]3OS(=O)(=O)O)[C@H](O)[C@H]2NS(=O)(=O)O)[C@H](O)[C@H]1OS(=O)(=O)O` [Compound 19] registered an EC50 of 87.8 µM. In addition, on Sulf-1 [2] (competitor 320 μM (0.32 mM), 4-MUS 4.35 mM), the “competing effect on 4-MUS cleavage by Sulf-1 (in words)” value is “strongly compete with 4-MUS; also recorded: good binder”. Moreover, on Sulf-1 [4], the “sulfate concentration upon hydrolysis by Sulf-1” value stood at 46.2 µM.

For the origin of these results see patent publication US11332490B1, “Compounds and methods for treating osteoarthritis” (Academia Sinica, priority 2021, dated 2022).
